Tests used:
[1] = target: Protein phosphatase 3 catalytic subunit alpha (Homo sapiens, UniProt Q08209); parameters: species or system Escherichia coli;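 further: inhibition of calcineurin (PP2B) enzyme activity, measured with DiFMUP as the substrate; in other assays of this panel Not Active means under 50% inhibition at 10 µM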
[2] = DRUGMATRIX: Potassium Channel [KATP] radioligand binding (ligand: [3H] Glyburide); format: cell membranes, Membrane; conditions: hit-t15; Not Active = under 50% inhibition at 10 µM
[3] = target: Matrix metalloproteinase-9 (Homo sapiens, UniProt P14780); format: cell-based;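 further: inhibition of isolated MMP-9 enzyme activity toward a synthetic peptide substrate, from the DrugMatrix protease screening panel; in other assays of this panel Not Active means under 50% inhibition at 10 µM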
[4] = target: T1, Alpha-1D adrenergic receptor (Homo sapiens, UniProt P25100); format: cell membranes, HEK293, Membrane; further: in other assays of this panel Not Active means under 50% inhibition at 10 µM
T1 sequence (P25100 whole entry): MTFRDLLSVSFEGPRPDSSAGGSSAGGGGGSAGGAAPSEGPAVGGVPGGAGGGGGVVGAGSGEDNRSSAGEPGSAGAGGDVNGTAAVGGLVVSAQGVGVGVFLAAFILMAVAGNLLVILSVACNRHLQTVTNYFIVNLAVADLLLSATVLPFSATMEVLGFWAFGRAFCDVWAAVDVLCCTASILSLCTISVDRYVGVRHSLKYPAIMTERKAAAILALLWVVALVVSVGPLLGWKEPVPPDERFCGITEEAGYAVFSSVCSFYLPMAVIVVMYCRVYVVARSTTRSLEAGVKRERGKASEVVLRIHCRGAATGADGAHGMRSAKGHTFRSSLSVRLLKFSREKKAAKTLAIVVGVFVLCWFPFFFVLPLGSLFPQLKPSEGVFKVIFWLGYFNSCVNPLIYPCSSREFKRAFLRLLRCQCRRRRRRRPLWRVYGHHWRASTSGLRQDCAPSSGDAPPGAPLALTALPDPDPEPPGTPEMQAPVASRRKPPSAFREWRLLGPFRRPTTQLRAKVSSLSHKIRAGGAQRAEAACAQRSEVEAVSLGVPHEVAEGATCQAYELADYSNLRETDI

[5] = target: T2, 5-hydroxytryptamine receptor 1A (Rattus norvegicus, UniProt P19327); format: cell membranes, CHO-K1, Membrane; conditions: cho-k1; further: in other assays of this panel Not Active means under 50% inhibition at 10 µM
T2 sequence (P19327 whole entry): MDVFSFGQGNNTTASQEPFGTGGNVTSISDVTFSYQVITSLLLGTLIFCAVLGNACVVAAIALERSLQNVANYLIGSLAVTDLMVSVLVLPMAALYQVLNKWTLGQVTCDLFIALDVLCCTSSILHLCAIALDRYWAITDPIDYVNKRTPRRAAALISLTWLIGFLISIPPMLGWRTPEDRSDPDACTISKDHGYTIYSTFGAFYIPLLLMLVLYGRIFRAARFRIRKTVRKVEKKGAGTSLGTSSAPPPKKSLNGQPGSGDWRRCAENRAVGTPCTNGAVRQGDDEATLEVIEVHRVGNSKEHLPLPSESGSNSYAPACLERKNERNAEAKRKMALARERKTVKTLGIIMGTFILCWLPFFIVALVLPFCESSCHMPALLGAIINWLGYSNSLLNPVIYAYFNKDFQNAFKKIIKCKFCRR

[6] = target: Sodium-dependent dopamine transporter (Homo sapiens, UniProt Q01959); experiment: DRUGMATRIX: Dopamine Transporter radioligand binding (ligand: [125I] RTI-55); format: cell membranes, CHO-K1, Membrane; conditions: Not Active = under 50% inhibition at 10 µM; for Ki: read-out: Ki
Chain of Sodium-dependent dopamine transporter (Q01959 whole entry): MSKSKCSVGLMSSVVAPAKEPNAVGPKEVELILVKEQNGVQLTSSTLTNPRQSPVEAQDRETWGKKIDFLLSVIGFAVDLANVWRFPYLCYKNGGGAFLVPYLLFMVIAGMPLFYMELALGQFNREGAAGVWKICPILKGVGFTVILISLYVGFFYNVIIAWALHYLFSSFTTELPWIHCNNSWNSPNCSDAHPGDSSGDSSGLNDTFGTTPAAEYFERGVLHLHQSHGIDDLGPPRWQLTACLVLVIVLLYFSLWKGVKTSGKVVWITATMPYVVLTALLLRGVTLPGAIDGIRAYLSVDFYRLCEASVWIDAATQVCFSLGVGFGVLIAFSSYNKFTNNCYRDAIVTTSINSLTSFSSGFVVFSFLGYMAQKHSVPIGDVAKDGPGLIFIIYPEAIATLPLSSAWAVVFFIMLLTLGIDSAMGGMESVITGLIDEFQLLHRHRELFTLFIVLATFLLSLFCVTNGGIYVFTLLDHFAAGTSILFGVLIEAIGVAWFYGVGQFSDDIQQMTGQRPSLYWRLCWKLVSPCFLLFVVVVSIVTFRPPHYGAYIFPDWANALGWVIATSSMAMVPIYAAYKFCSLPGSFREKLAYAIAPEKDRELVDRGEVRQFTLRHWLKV

Chain of Matrix metalloproteinase-9 (P14780 whole entry): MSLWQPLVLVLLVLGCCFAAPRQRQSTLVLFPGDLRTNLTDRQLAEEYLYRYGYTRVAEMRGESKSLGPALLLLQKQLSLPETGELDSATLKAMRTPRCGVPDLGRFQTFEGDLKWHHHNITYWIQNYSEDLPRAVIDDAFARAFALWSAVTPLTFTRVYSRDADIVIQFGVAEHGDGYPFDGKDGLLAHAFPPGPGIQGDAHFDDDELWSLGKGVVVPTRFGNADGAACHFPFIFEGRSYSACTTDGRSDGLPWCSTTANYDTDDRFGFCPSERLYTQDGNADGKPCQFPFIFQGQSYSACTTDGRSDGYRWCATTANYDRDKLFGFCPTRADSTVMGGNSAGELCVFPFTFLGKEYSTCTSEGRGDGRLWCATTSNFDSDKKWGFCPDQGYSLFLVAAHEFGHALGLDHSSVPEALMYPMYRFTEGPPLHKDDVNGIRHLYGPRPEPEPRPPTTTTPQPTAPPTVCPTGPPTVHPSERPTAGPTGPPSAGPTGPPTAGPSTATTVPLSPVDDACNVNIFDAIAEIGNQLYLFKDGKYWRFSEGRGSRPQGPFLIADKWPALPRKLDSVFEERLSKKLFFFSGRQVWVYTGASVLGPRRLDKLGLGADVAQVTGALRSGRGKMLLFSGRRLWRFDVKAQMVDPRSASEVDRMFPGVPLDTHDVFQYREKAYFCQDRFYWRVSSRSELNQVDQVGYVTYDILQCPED

| Structure (SMILES) | IC50 [1] | IC50 [2] | Ki [2] | IC50 [3] | IC50 ([4]; hek293) | IC50 [5] | IC50 ([6]; cho-k1) | IC50 ([6]; read-out: IC50) | Ki [6] | IC50 ([4]; read-out: IC50) | Ki ([4]; read-out: Ki) |
| --- | --- | --- | --- | --- | --- | --- | --- | --- | --- | --- | --- |
| C[C@]12CC[C@H]3[C@@H](CCC4=CC(=O)CC[C@@H]43)[C@@H]1CC[C@@H]2O [NANDROLONE] | Not Active | Not Active | Not Active | Not Active | Not Active | Not Active | Not Active |  |  |  |  |
| CCOc1nc2cccc(C(=O)O)c2n1Cc1ccc(-c2ccccc2-c2nnn[nH]2)cc1 | Not Active | Not Active | Not Active | Not Active | Not Active | Not Active | Not Active |  |  |  |  |
| COc1cccc2c1C(=O)c1c(O)c3c(c(O)c1C2=O)C[C@@](O)(C(C)=O)C[C@@H]3O[C@H]1C[C@H](N)[C@H](O)[C@H](C)O1 [DAUNORUBICIN] | Not Active | Not Active | Not Active | Not Active | Not Active | Not Active | Not Active |  |  |  |  |
| CC(O)(P(=O)(O)O)P(=O)(O)O [ETIDRONIC ACID] | Not Active | Not Active | Not Active | Not Active | Not Active | Not Active | Not Active |  |  |  |  |
| CC(=O)Oc1ccccc1C(=O)O [ASPIRIN] | Not Active | Not Active | Not Active | Not Active | Not Active | Not Active | Not Active |  |  |  |  |
| O=c1[nH]c(=O)n([C@H]2C[C@H](O)[C@@H](CO)O2)cc1F [FLOXURIDINE] | Not Active | Not Active | Not Active | Not Active | Not Active | Not Active | Not Active |  |  |  |  |
| O=C(O)CC(O)(CC(=O)O)C(=O)O [CITRIC ACID] | Not Active | Not Active | Not Active | Not Active | Not Active | Not Active | Not Active |  |  |  |  |
| CCCCC1=NC2(CCCC2)C(=O)N1Cc1ccc(-c2ccccc2-c2nnn[nH]2)cc1 [IRBESARTAN] | Not Active | Not Active | Not Active | Not Active | Not Active | Not Active | Not Active |  |  |  |  |
| O=c1c(-c2ccc(O)cc2)coc2cc(O)cc(O)c12 [GENISTEIN] | Not Active | Not Active | Not Active | Not Active | Not Active | Not Active |  | 16.9 µM | 13.4 µM |  |  |
| CN(C)C(=N)NC(=N)N [METFORMIN] | Not Active | Not Active | Not Active | Not Active | Not Active | Not Active | Not Active |  |  |  |  |
| C[C@H]1O[C@H](O[C@H]2[C@H](O)[C@@H](O)[C@@H](O[C@H]3[C@H](O)[C@@H](O)C(O)O[C@@H]3CO)O[C@@H]2CO)[C@H](O)[C@@H](O)[C@@H]1N[C@H]1C=C(CO)[C@@H](O)[C@H](O)[C@H]1O (some centres undefined) [ACARBOSE] | Not Active | Not Active | Not Active | Not Active | Not Active | Not Active | Not Active |  |  |  |  |
| COc1ccccc1N | Not Active | Not Active | Not Active | Not Active | Not Active | Not Active | Not Active |  |  |  |  |
| CC(O)COC[C@H]1O[C@@H]2O[C@H]3[C@H](O)[C@@H](O)[C@@H](O[C@H]4[C@H](O)[C@@H](O)[C@@H](O[C@H]5[C@H](O)[C@@H](O)[C@@H](O[C@H]6[C@H](O)[C@@H](O)[C@@H](O[C@H]7[C@H](O)[C@@H](O)[C@@H](O[C@H]8[C@H](O)[C@@H](O)[C@@H](O[C@H]1[C@H](O)[C@H]2O)O[C@@H]8COCC(C)O)O[C@@H]7COCC(C)O)O[C@@H]6COCC(C)O)O[C@@H]5COCC(C)O)O[C@@H]4COCC(C)O)O[C@@H]3COCC(C)O (stereo partly drawn) [2-HYDROXYPROPYL-BETA-CYCLODEXTRIN] | Not Active | Not Active | Not Active | Not Active | Not Active | Not Active |  | 1.69 µM | 1.34 µM |  |  |
| N[C@@H](Cn1ccc(=O)c(O)c1)C(=O)O [L-MIMOSINE] | Not Active | Not Active | Not Active | Not Active | Not Active | Not Active | Not Active |  |  |  |  |
| CS(=O)(=O)Nc1ccc([N+](=O)[O-])cc1Oc1ccccc1 [NIMESULIDE] | Not Active | Not Active | Not Active | Not Active | Not Active | Not Active |  | 14.9 µM | 11.8 µM |  |  |
| C[N+](C)(C)C[C@H](O)CC(=O)[O-] [LEVOCARNITINE] | Not Active | Not Active | Not Active | Not Active | Not Active | Not Active | Not Active |  |  |  |  |
| O=C(O)c1cc(-c2ccc(F)cc2F)ccc1O [DIFLUNISAL] | Not Active | Not Active | Not Active | Not Active | Not Active | Not Active | Not Active |  |  |  |  |
| CN1CCN(C(c2ccccc2)c2ccccc2)CC1 [CYCLIZINE] | Not Active | Not Active | Not Active | Not Active |  | Not Active |  | 0.763 µM | 0.606 µM | 1.21 µM | 0.597 µM |
| CC(C)(C)NCC(O)COc1cccc2c1CC(O)C(O)C2 (centres undefined) [NADOLOL] | Not Active | Not Active | Not Active | Not Active | Not Active | Not Active | Not Active |  |  |  |  |
| CCCNC(=O)NS(=O)(=O)c1ccc(Cl)cc1 [CHLORPROPAMIDE] | Not Active | Not Active | Not Active | Not Active | Not Active | Not Active | Not Active |  |  |  |  |
| CO/N=C(\C(=O)N[C@@H]1C(=O)N2C(C(=O)O)=C(COC(C)=O)CS[C@H]12)c1csc(N)n1 [CEFOTAXIME] | Not Active | Not Active | Not Active | Not Active | Not Active | Not Active | Not Active |  |  |  |  |
| Nc1cc(-c2ccncc2)c[nH]c1=O [INAMRINONE] | Not Active | Not Active | Not Active | Not Active | Not Active | Not Active | Not Active |  |  |  |  |
